One series concerns the target PI3Kα (Homo sapiens, UniProt P42336). As to the kind of experiment: Fluorescent determination of PI3Kinase enzyme activity (HTRF), PI3Kα. It is filed as biochemical. For orientation: Time-resolved FRET reads energy transfer from a long-lived donor to a nearby acceptor.
For another series, the target named is PI3Kβ (Homo sapiens, UniProt P42338). Kind of series: Fluorescent determination of PI3Kinase enzyme activity (HTRF), PI3Kβ. It is filed as biochemical.
The target of another series is PI3Kδ (Homo sapiens, UniProt O00329). Kind of series: Fluorescent determination of PI3Kinase enzyme activity (HTRF), PI3Kδ. The settings on record: 100 nM (underlined values: 300 nM). It is filed as biochemical.
A further series deals with PI3Kγ (Homo sapiens, UniProt P48736). Kind of series: Fluorescent determination of PI3Kinase enzyme activity (HTRF), PI3Kγ. Format: biochemical. The note with it: 100 nM (underlined values: 300 nM).

A word on the melting point: it is the temperature of the solid-liquid transition. Usually inhibition stands for how much of the control response was suppressed.

PI3Kβ, sequence (P42338 whole entry): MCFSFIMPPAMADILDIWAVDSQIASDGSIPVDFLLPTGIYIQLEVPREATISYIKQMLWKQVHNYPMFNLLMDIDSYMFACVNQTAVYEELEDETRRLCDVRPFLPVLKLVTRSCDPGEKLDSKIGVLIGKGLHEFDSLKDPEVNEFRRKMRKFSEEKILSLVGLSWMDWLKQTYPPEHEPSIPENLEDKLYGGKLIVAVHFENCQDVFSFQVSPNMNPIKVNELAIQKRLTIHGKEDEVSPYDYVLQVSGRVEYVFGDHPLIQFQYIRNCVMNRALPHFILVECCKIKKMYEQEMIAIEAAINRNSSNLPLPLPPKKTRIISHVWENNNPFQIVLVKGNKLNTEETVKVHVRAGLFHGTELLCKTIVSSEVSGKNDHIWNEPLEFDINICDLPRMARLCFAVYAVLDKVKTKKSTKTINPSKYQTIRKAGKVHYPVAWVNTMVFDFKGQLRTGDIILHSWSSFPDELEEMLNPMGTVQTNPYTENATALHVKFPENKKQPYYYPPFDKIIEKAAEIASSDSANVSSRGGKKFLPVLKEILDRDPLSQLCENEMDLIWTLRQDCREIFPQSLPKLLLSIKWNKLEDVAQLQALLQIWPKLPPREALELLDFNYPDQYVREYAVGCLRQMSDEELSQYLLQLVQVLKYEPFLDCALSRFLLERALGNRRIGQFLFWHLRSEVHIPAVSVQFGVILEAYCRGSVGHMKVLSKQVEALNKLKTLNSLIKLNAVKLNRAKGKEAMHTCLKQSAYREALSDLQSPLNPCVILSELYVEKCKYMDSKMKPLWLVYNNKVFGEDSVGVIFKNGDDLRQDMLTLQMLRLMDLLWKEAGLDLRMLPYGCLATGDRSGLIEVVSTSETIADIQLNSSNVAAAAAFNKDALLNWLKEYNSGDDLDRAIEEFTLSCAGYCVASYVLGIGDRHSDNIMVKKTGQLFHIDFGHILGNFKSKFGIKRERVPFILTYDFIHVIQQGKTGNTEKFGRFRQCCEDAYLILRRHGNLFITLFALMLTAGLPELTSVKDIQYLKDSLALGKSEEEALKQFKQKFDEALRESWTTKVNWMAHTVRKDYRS
PI3Kβ, sequence (P27986 whole entry partner): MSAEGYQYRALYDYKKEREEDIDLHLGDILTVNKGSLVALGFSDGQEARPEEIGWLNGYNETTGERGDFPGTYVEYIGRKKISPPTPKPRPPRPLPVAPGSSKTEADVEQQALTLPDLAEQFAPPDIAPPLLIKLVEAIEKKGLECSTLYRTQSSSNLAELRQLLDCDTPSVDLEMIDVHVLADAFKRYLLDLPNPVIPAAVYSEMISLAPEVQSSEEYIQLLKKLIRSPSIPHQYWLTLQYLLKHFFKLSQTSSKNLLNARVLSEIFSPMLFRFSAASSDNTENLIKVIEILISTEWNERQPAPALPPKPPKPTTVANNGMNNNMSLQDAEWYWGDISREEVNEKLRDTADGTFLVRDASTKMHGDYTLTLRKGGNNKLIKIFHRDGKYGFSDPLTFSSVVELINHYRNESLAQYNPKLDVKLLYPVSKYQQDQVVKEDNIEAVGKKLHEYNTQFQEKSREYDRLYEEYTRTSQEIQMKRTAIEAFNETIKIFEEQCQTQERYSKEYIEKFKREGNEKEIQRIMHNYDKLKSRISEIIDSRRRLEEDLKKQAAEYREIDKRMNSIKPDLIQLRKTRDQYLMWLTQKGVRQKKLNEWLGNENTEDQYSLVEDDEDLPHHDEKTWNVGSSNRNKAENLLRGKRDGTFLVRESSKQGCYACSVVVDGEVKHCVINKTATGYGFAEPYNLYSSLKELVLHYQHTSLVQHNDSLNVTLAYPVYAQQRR
PI3Kγ, sequence (P48736 whole entry): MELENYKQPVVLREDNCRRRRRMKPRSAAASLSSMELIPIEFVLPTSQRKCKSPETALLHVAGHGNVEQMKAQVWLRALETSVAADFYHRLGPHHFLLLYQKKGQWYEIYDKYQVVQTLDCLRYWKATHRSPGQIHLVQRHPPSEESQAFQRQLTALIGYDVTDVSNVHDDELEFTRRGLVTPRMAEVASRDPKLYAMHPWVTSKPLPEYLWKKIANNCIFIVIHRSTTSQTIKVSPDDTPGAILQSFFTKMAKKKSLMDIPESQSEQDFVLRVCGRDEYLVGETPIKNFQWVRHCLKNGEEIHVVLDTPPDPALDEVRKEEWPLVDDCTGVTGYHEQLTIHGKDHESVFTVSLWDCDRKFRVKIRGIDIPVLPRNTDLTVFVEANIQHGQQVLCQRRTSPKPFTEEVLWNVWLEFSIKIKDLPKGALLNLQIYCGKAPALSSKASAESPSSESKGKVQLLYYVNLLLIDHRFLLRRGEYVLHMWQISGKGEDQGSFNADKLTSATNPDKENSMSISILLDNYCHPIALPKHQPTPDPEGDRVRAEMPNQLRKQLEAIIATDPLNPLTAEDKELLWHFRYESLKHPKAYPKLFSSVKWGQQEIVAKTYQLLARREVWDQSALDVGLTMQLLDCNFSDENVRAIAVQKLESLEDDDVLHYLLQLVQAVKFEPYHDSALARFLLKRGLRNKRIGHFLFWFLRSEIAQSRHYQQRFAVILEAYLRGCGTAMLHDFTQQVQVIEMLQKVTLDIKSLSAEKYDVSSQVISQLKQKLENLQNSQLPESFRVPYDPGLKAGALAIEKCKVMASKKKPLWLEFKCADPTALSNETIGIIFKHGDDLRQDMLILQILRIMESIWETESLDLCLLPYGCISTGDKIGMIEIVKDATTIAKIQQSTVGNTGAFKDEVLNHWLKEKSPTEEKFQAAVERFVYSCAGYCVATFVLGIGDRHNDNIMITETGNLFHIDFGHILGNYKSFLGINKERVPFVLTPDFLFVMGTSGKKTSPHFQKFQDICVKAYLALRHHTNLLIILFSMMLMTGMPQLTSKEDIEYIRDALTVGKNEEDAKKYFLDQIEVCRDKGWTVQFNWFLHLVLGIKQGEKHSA
PI3Kδ, sequence (O00329 whole entry): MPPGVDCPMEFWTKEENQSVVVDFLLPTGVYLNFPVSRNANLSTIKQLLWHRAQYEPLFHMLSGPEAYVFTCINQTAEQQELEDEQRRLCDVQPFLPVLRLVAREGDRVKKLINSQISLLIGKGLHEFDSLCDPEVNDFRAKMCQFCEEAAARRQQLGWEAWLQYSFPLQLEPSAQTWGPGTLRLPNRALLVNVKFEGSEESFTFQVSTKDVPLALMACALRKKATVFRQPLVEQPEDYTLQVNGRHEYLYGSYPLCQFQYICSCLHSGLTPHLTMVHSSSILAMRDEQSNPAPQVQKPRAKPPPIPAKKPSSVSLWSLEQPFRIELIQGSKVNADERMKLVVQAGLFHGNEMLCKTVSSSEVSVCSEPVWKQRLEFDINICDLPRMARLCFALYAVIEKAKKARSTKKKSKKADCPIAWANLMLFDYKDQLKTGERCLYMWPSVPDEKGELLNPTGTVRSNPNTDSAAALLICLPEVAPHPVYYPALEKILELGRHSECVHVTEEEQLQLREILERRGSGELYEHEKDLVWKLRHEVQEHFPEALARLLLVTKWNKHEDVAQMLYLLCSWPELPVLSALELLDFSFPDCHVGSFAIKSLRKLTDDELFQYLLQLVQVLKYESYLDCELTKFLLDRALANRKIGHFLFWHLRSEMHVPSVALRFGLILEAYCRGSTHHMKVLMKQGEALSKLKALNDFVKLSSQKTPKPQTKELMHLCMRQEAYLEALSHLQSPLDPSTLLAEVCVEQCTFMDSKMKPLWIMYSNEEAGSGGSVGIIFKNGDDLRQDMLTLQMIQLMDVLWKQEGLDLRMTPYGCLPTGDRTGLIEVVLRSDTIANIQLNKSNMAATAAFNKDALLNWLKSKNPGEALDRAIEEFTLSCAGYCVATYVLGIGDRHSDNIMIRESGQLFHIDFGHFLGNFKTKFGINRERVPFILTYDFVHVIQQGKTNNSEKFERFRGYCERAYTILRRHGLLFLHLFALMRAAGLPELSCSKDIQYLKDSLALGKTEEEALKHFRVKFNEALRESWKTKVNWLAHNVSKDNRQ
PI3Kδ, sequence (P27986 whole entry partner): as the sequence (P27986 whole entry partner) above
PI3Kα, sequence (P42336 whole entry): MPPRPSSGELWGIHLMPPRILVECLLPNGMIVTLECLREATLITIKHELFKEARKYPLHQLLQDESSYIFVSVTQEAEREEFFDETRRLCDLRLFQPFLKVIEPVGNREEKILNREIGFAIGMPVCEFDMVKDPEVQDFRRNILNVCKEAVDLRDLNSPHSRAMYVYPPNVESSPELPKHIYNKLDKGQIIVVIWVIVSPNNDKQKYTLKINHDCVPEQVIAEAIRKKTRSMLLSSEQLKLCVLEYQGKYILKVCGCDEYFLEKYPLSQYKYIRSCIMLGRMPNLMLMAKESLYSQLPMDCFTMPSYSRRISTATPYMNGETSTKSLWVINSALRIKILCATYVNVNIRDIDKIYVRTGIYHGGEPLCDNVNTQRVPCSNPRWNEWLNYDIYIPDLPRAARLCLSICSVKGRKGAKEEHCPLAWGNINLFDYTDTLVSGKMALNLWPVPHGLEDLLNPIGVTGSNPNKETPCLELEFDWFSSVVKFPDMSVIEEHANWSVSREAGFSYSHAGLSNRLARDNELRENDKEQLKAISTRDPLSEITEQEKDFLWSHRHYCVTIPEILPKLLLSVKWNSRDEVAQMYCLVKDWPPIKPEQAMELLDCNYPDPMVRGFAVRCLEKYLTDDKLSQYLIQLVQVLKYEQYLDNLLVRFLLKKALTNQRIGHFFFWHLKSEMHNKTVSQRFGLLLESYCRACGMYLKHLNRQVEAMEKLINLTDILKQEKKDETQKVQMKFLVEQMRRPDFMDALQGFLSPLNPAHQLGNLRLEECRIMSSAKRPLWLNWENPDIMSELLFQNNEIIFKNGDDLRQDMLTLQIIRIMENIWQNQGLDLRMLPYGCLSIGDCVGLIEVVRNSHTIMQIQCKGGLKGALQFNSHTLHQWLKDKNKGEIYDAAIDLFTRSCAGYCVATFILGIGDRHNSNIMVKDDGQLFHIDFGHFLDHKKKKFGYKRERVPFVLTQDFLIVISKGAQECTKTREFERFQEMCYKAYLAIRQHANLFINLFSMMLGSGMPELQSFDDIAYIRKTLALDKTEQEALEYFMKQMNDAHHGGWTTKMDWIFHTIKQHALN
PI3Kα, sequence (P27986 whole entry partner): as the sequence (P27986 whole entry partner) above

The compound `CC(c1nc2ccccc2c(=O)n1-c1ccccc1)n1nc(-c2ccc(O)c(F)c2)c2c(N)ncnc21` (stereo not shown) [Example 8, 2-(1-(4-amino-3-(3-fluoro-4-hydroxyphenyl)-1H-pyrazolo[3,4-d]pyrimidin-1-yl)ethyl)-3-phenylquinazolin-4(3H)-one] registered a melting point of 230 to 233 °C. This compound also showed an inhibition at 1 µM on PI3Kα of 0 to 10%. On PI3Kβ, this compound came in with an inhibition at 1 µM of 20 to 40%. Also, on PI3Kδ, the inhibition at 0.1 µM was 20 to 40%. This compound yielded an inhibition at 0.1 µM at PI3Kγ of 0 to 20%.

`COc1ccc(-c2nn([C@H](C)c3cc4ccccc4c(=O)n3-c3ccccc3)c3ncnc(N)c23)cc1NS(C)(=O)=O` [Example 9b, (−)—N-(5-(4-amino-1-(1-(1-oxo-2-phenyl-1,2-dihydroisoquinolin-3-yl)ethyl)-1H-pyrazolo[3,4-d]pyrimidin-3-yl)-2-methoxyphenyl)methanesulfonamide] gave a melting point of 158 to 162 °C. The compound also registered an inhibition at 1 µM at PI3Kα of 0 to 10%. On PI3Kβ, this compound returned an inhibition at 1 µM of 10 to 20%. This compound also came in with an inhibition at 0.1 µM on PI3Kδ of 40 to 60%. On PI3Kγ, this compound registered an inhibition at 0.1 µM of 0 to 20%.

Values taken from patent publication US11352359B2, “PI3K protein kinase inhibitors” (Rhizen Pharmaceuticals SA, priority 2013, dated 2022).
